Data published in patent publication US20110245200A1, “USE OF IDRABI[…] DECREASING THE INCIDENCE OF BLEEDINGS DURING AN ANTI[…]” (SANOFI-AVENTIS, priority 2008, published 2011).

What was measured:
[1] = tested on: patients with acute symptomatic DVT; assay: EQUINOX clinical trial: bleeding (safety) and efficacy over 6 months of treatment; assay type: in vivo, human; conditions: for Kaplan-Meier cumulative incidence of first bleeding (any bleeding), comparison of the two groups: FIG. 1; for Major bleeding, number of patients [n] / Any bleeding (clinically relevant major or non-major), % of patients / Any bleeding (clinically relevant major or non-major), number of patients [n] / Major bleeding, % of patients (incidence): first study drug administration up to D182; for Any bleeding (clinically relevant major or non-major), % of patients: crude rate; for Any bleeding (clinically relevant major or non-major), number of patients [n]: once-weekly s.c., equimolar doses (idrabiotaparinux 3.0 mg, idraparinux 2.5 mg); for Major bleeding, % of patients (incidence): p=0.006 Fisher's exact test
Excerpt: (§1) This trial was aimed at studying the bioequipotency of idrabiotaparinux and idraparinux, as assessed by anti-Xa activity at month 6, in patients with acute symptomatic DVT, as well as studying the ability to neutralize idrabiotaparinux with avidin, and also at documenting the safety and efficacy of idrabiotaparinux and idraparinux.
The study was an international, multi-center, double-blind, randomized, with two parallel groups phase III study, in patients treated for acute symptomatic DVT. In order to get 600 patients (300 patients in each treatment group) who completed the 6-month treatment with idrabiotaparinux or idraparinux, 700 patients with confirmed symptomatic DVT of the lower limbs were to be randomized to either idrabiotaparinux (n=350 patients) or idraparinux (n=350 patients). 300 completed patients per group, with a 6-month extent of exposure to the drug, were considered as an adequate sample size to assess clinical safety of idrabiotaparinux, i.e. to characterize the pattern of adverse events over time.
During the study period, patients were treated with equimolar doses of idrabiotaparinux (3.0 mg) or of idraparinux (2.5 mg). The drug was injected subcutaneously, once-weekly.
For safety, the main endpoints were clinically relevant bleeding (major or clinically relevant non-major), as classified by the Central Independent Adjudication Committee (hereafter “CIAC”), and death (cause of death validated by the CIAC).
The safety population consisted of all randomized patients who took at least one dose of study medication (all treated population). Patients were analyzed according to the treatment they actually received.
The main safety analysis period was the randomized treatment period, defined as the period from first study drug administration (taken as Day 1) up to Day 182 (hereafter “D182”).
The numbers and percentages of patients with clinically relevant bleeding within 6 months (from first study drug administration up to Day 182) were presented by treatment group. The rate of any clinically relevant bleeding was calculated by dividing the number of patients with this event by the number of treated patients (crude rate). Bleeding rate estimates and exact 95% confidence interval (hereafter “C1”) were presented by treatment group. Cumulative incidences of any clinically relevant bleeding during the on-treatment period were also described by treatment group using the Kaplan-Meier method. Time to first clinically relevant bleeding was censored at the minimum day between: Day 182; the day of last study drug administration+7 days; the day of death; and the day of last clinical event assessment giving any information on bleeding symptoms.
The numbers and percentages (crude rates) of patients with major bleedings within 6 months (from first study drug administration up to Day 182) were also presented by treatment group. The criteria used by the CIAC to classify major bleedings were summarized according to the worst severity. The order of severity was: fatal bleeding, including fatal intra-cranial hemorrhage (hereafter “ICH”), non-fatal bleeding within a critical organ, non-fatal bleeding with fall in hemoglobin or transfusion.

patients with DVT [2] = assay: Putative indirect comparison of idrabiotaparinux with standard treatment (EQUINOX OR times van Gogh DVT OR); assay type: in vivo, human; conditions: 95% CI: 0.061-1.020; p value 0.053; calculated as 0.200 times 1.245
Protocol: For major bleedings, the putative odds ratio (OR) comparing idrabiotaparinux to the standard treatment (OR=0.249 [95% CI: 0.061-1.020]) yielded a p value of 0.053; this putative OR was calculated as OR of idrabiotaparinux versus idraparinux in EQUINOX (0.200) times OR of idraparinux versus standard treatment in van Gogh DVT (1.245).

activated factor X = assay: EQUINOX clinical trial: bioequipotency assessed by anti-Xa activity; assay type: in vivo, human; conditions: equimolar doses
Excerpt: as §1

patients with DVT [3] = conditions: 6 months after start of treatment (Day 183), N. Engl. J. Med., 2007, 357, 1094-104; cited from earlier work
patients with DVT [4] = assay: VAN GOGH clinical trial (DVT): bleeding incidence, idraparinux versus standard therapy; assay type: in vivo, human
Excerpt: According to the results published in N. Engl.

[5] = major bleedings up to D182 by adjudication criterion, all treated population

Row | Compound | Major bleeding, number of patients [n] ([1]; all treated population) | Any bleeding (clinically relevant major or non-major), % of patients ([1]; all treated population) [%] | Any bleeding (clinically relevant major or non-major), number of patients [n] ([1]; all treated population) | Major bleeding, % of patients (incidence) ([1]; all treated population) [%] | Fatal bleeding: Gastrointestinal, number of patients [n] [1, 5] | Fatal bleeding: Intracranial, number of patients [n] [1, 5] | Fatal bleeding: Other, number of patients [n] [1, 5] | Non-fatal bleeding associated with a fall in hemoglobin >=2 g/dL and/or leading to a transfusion >=2 units of blood, % of patients [1, 5] [%] | Non-fatal bleeding associated with a fall in hemoglobin >=2 g/dL and/or leading to a transfusion >=2 units of blood, number of patients [n] [1, 5] | Non-fatal bleeding into a critical organ: Intracranial, number of patients [n] [1, 5] | Non-fatal bleeding into a critical organ: Other, number of patients [n] [1, 5] | Non-fatal bleeding into a critical organ: Pericardial, number of patients [n] [1, 5] | Non-fatal bleeding into a critical organ: Retroperitoneal, number of patients [n] [1, 5] | further results
1 | CO[C@H]1O[C@H](COS(=O)(=O)O)[C@@H](O[C@@H]2O[C@@H](C(=O)O)[C@@H](O[C@H]3O[C@H](COS(=O)(=O)O)[C@@H](O[C@@H]4O[C@H](C(=O)O)[C@@H](O[C@H]5O[C@H](COS(=O)(=O)O)[C@@H](OC)[C@H](OC)[C@H]5NC(=O)CCCCCNC(=O)CCCC[C@@H]5SC[C@@H]6NC(=O)N[C@@H]65)[C@H](OC)[C@H]4OC)[C@H](OS(=O)(=O)O)[C@H]3OS(=O)(=O)O)[C@H](OC)[C@H]2OC)[C@H](OS(=O)(=O)O)[C@H]1OS(=O)(=O)O [Idrabiotaparinux, idrabiotaparinux] | 3 | 5.2 | 20 | 0.8 | 0 | 0 | 1 | 0.5 | 2 | 0 | 0 | 0 | 0 | Odds ratio for major bleedings, idrabiotaparinux versus idraparinux ([1]; EQUINOX): 0.200; Kaplan-Meier cumulative incidence of first bleeding (any bleeding), comparison of the two groups ([1]; on-treatment period, at month 3): comparable; Kaplan-Meier cumulative incidence of first major bleeding, comparison of the two groups ([1]; FIG. 2, on-treatment period, after month 2): marked difference in major bleeding incidences between the two treatment groups, in favour of the idrabiotaparinux group; Fatal bleeding: Other, % of patients [1, 5]: 0.3%; Fatal bleeding: Other, number of patients [n] ([1]; major bleedings up to D182 by adjudication criterion, all treated population, listed as idrabiotaparinux): One; Safety (observed bleedings) compared with idraparinux ([1]; patients with DVT treated for 6 months, equimolar doses): better safety with less observed bleedings; Putative odds ratio (OR) for major bleedings, idrabiotaparinux versus standard treatment (patients with DVT [2]): 0.249; anti-activated factor X pharmacological activity (anti-Xa activity) compared with idraparinux (activated factor X): same
2 | CO[C@H]1O[C@H](COS(=O)(=O)O)[C@@H](O[C@@H]2O[C@@H](C(=O)O)[C@@H](O[C@H]3O[C@H](COS(=O)(=O)O)[C@@H](O[C@@H]4O[C@H](C(=O)O)[C@@H](O[C@H]5O[C@H](COS(=O)(=O)O)[C@@H](OC)[C@H](OC)[C@H]5OC)[C@H](OC)[C@H]4OC)[C@H](OS(=O)(=O)O)[C@H]3OS(=O)(=O)O)[C@H](OC)[C@H]2OC)[C@H](OS(=O)(=O)O)[C@H]1OS(=O)(=O)O [Idraparinux, idraparinux] | 14 | 7.3 | 27 | 3.8 | 0 | 3 | 0 | 1.9 | 7 | 2 | 0 | 0 | 2 | Kaplan-Meier cumulative incidence of first bleeding (any bleeding), comparison of the two groups ([1]; on-treatment period, at month 6): higher than in the idrabiotaparinux group; Fatal bleeding: Intracranial, % of patients [1, 5]: 0.8%; Non-fatal bleeding into a critical organ: Intracranial, % of patients [1, 5]: 0.5%; Non-fatal bleeding into a critical organ: Retroperitoneal, % of patients [1, 5]: 0.5%; Fatal bleeding: Intracranial, number of patients [n] ([1]; major bleedings up to D182 by adjudication criterion, all treated population, listed as idraparinux): three; Intracranial hemorrhages observed (fatal and non-fatal), number ([1]; up to D182, all treated population): five; Incidence of clinically relevant bleedings (any bleedings) (patients with DVT [3]): 8.3%; Rate of major bleedings (patients with DVT [3]): 1.9%; Odds ratio for major bleedings, idraparinux versus standard treatment (patients with DVT [4]): 1.245
